The record followed here is patent US8063071B2 (GlaxoSmithKline, LLC, priority 2007, dated 2011).

The target of assay [1] is T1, Recombinant human IKKβ (residues 1-737) (Homo sapiens, UniProt O14920).
T1 construct: Recombinant human IKKβ (residues 1-737); GST (C); made in house
T1 sequence (O14920 1-737): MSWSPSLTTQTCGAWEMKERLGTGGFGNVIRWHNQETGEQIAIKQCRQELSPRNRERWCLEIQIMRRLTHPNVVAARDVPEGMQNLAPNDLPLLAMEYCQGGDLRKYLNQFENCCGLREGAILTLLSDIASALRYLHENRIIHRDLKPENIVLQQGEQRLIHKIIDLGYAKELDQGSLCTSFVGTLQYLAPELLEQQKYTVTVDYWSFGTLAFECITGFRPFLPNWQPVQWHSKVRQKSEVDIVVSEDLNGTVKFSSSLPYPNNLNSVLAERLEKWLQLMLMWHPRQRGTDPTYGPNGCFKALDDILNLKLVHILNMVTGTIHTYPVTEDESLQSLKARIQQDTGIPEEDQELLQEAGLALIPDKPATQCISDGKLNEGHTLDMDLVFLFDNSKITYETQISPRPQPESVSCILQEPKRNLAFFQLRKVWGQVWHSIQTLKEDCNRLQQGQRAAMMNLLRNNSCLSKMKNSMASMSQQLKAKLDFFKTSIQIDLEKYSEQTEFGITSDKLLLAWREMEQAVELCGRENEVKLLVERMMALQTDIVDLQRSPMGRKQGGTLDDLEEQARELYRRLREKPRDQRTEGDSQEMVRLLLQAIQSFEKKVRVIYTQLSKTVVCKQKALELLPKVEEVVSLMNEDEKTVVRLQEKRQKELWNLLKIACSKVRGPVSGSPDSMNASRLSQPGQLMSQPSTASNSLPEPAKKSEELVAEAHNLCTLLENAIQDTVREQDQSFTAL
Description: IKK2 assay (TR-FRET). The settings on record: ATP 1 μM final, read-out: pIC50 against IKK2 (converted). The format is biochemical. The essentials: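 TR-FRET readout (665 nm over 620 nm Eu reference) of GST-IB Ser32/36 phosphorylation after 60 min detection. Reaction: 1 μM ATP, 25 nM substrate, 0.5-5 nM GST-fused IKKβ 1-737 from baculovirus, pH 7.4 HEPES buffer, 1.7% DMSO, 15 min room temperature, EDTA-terminated.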

Assay [2] deals with human monocyte stimulated cytokine production (TNF-α). As to the kind of experiment: Monocyte assay (LPS-stimulated TNF-α production). The format is cell-based. The settings on record: 24 h, 200 ng/mL LPS, TNF-α by ELISA. The essentials:
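TNF-α release was measured by ELISA after 24 hrs at 37 C. Cells were stimulated with 200 ng/mL E. coli LPS, with compound added 30 minutes beforehand (0.1% DMSO vehicle). Cells were Ficoll/MACS-isolated CD14+ human monocytes adhered at 1×10^6 cells/mL, and viability was checked by trypan blue.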
Background: An ELISA detects its analyte on a solid surface through an enzyme-linked reagent.

Structures are written as SMILES. pIC50: −log10 of the molar value. Where a name gives a salt, the structure may show the parent alone. Where only a bound is given, the exact number is not on record here.

As usually defined, the pIC50 is the negative decadic logarithm of the IC50, by convention in mol/L. Lower therefore signals a high IC50.

Take `CCS(=O)(=O)N1CCC(c2c[nH]c3c(C(N)=O)cc(-c4csc([C@H](C)N5CCCC5)c4)cc23)CC1` [Example 212, 3-[1-(ethylsulfonyl)-4-piperidinyl]-5-{5-[(1S)-1-(1-pyrrolidinyl)ethyl]-3-thienyl}-1H-indole-7-carboxamide]: the IC50 in assay [1] was at most 10 µM. Further, the negative-log IC50 (pIC50) in assay [2] was at least 5.82.
In the case of `CCS(=O)(=O)N1CCC(c2c[nH]c3c(C(N)=O)cc(-c4csc([C@@H](C)N5CCCC5)c4)cc23)CC1` [Example 213, 3-[1-(ethylsulfonyl)-4-piperidinyl]-5-{5-[(1R)-1-(1-pyrrolidinyl)ethyl]-3-thienyl}-1H-indole-7-carboxamide], the IC50 in assay [1] is at most 10 µM. The compound further had a negative-log IC50 (pIC50) in assay [2] of at least 5.82.
For `CCS(=O)(=O)N1CCC(c2c[nH]c3c(C(N)=O)cc(-c4cc(CNCCCOC)cs4)cc23)CC1` [Example 214, 3-[1-(ethylsulfonyl)-4-piperidinyl]-5-[4-({[3-(methyloxy)propyl]amino}methyl)-2-thienyl]-1H-indole-7-carboxamide trifluoroacetate] the same measures were at most 10 µM and at least 5.82.
For `CCS(=O)(=O)N1CCC(c2c[nH]c3c(C(N)=O)cc(-c4cc(CN5CCC[C@H]5COC)cs4)cc23)CC1` [Example 215, 3-[1-(ethylsulfonyl)-4-piperidinyl]-5-[4-({(2S)-2-[(methyloxy)methyl]-1-pyrrolidinyl}methyl)-2-thienyl]-1H-indole-7-carboxamide trifluoroacetate], the IC50 in assay [1] was at most 10 µM. The same compound showed a pIC50 in assay [2] of at least 5.82.
For `CCS(=O)(=O)N1CCC(c2c[nH]c3c(C(N)=O)cc(-c4cc(CN5[C@H](C)CC[C@H]5C)cs4)cc23)CC1` [Example 216, 5-(4-{[(2R,5R)-2,5-dimethyl-1-pyrrolidinyl]methyl}-2-thienyl)-3-[1-(ethylsulfonyl)-4-piperidinyl]-1H-indole-7-carboxamide trifluoroacetate], the IC50 in assay [1] was at most 10 µM. Further, the pIC50 in assay [2] was at least 5.82.
Take `CCS(=O)(=O)N1CCC(c2c[nH]c3c(C(N)=O)cc(-c4csc(CN5CCC[C@@H]5C)c4)cc23)CC1` [Example 217, 3-[1-(ethylsulfonyl)-4-piperidinyl]-5-(5-{[(2S)-2-methyl-1-pyrrolidinyl]methyl}-3-thienyl)-1H-indole-7-carboxamide]: the IC50 in assay [1] is at most 10 µM. Moreover, in assay [2], the negative-log IC50 (pIC50) is at least 5.82.
On to `CCS(=O)(=O)N1CCC(c2c[nH]c3c(C(N)=O)cc(-c4csc(CN5CCC[C@H]5C)c4)cc23)CC1` [Example 218, 3-[1-(ethylsulfonyl)-4-piperidinyl]-5-(5-{[(2R)-2-methyl-1-pyrrolidinyl]methyl}-1′-3-thienyl)-1H-indole-7-carboxamide], for which the IC50 in assay [1] is at most 10 µM. The compound further showed a pIC50 in assay [2] of at least 5.82.
For `CCC(c1cc(-c2cc(C(N)=O)c3[nH]cc(C4CCN(S(=O)(=O)CC)CC4)c3c2)cs1)N1CCCC1` (centres unmarked) [Example 219, 3-[1-(ethylsulfonyl)-4-piperidinyl]-5-{5-[1-(1-pyrrolidinyl)propyl]-3-thienyl}-1H-indole-7-carboxamide trifluoroacetate] the same measures were at most 10 µM and at least 5.82.
For `CC(C)S(=O)(=O)N1CCC(c2c[nH]c3c(C(N)=O)cc(-c4csc(CN(C)C)c4)cc23)CC1` [Example 220, 5-{5-[(dimethylamino)methyl]-3-thienyl}-3-{1-[(1-methylethyl)sulfonyl]-4-piperidinyl}-1H-indole-7-carboxamide trifluoroacetate] the same measures were at most 10 µM and at least 5.82.
With `CCS(=O)(=O)N1CCC(c2c[nH]c3c(C(N)=O)cc(-c4csc(CCNCC(C)C)c4)cc23)CC1` [Example 222, 3-[1-(ethylsulfonyl)-4-piperidinyl]-5-(5-{2-[(2-methylpropyl)amino]ethyl}-3-thienyl)-1H-indole-7-carboxamide trifluoroacetate], the IC50 in assay [1] was at most 10 µM. For the same compound, the negative-log IC50 (pIC50) in assay [2] was at least 5.82.
For `CCS(=O)(=O)N1CCC(c2c[nH]c3c(C(N)=O)cc(-c4csc(CCN(C)C)c4)cc23)CC1` [Example 223, 5-{5-[2-(dimethylamino)ethyl]-3-thienyl}-3-[1-(ethylsulfonyl)-4-piperidinyl]-1H-indole-7-carboxamide trifluoroacetate], the IC50 in assay [1] is at most 10 µM. This compound gave a pIC50 in assay [2] of at least 5.82.
`CCS(=O)(=O)N1CCC(c2c[nH]c3c(C(N)=O)cc(-c4ccc(N5CCCC5)nc4)cc23)CC1` [Example 224, 3-[1-(ethylsulfonyl)-4-piperidinyl]-5-[6-(1-pyrrolidinyl)-3-pyridinyl]-1H-indole-7-carboxamide trifluoroacetate]: the IC50 in assay [1] was at most 10 µM. In addition, the pIC50 in assay [2] is under 6.00.
For `CCCNc1ccc(-c2cc(C(N)=O)c3[nH]cc(C4CCN(S(=O)(=O)CC)CC4)c3c2)cn1` [Example 227, 3-[1-(ethylsulfonyl)-4-piperidinyl]-5-[6-(propylamino)-3-pyridinyl]-1H-indole-7-carboxamide trifluoroacetate] the same measures were at most 10 µM and at least 5.82.
On to `CCS(=O)(=O)N1CCC(c2c[nH]c3c(C(N)=O)cc(-c4csc(CNC)c4)cc23)CC1` [Example 230, 3-[1-(ethylsulfonyl)-4-piperidinyl]-5-{5-[(methylamino)methyl]-3-thienyl}-1H-indole-7-carboxamide trifluoroacetate], for which the IC50 in assay [1] was at most 10 µM. This compound had a negative logarithm of the IC50 (pIC50) in assay [2] of at least 5.82.
The like results for `CCS(=O)(=O)N1CCC(c2c[nH]c3c(C(N)=O)cc(-c4csc(CNC(C)C)c4)cc23)CC1` [Example 231, 3-[1-(ethylsulfonyl)-4-piperidinyl]-5-(5-{[(1-methylethyl)amino]methyl}-3-thienyl)-1H-indole-7-carboxamide trifluoroacetate] were, in that order, at most 10 µM and at least 5.82.
Consider `CCS(=O)(=O)N1CCC(c2c[nH]c3c(C(N)=O)cc(-c4csc(CN5CCCC5)c4)cc23)CC1` [Example 232, 3-[1-(ethylsulfonyl)-4-piperidinyl]-5-[5-(1-pyrrolidinylmethyl)-3-thienyl]-1H-indole-7-carboxamide trifluoroacetate], for which, in assay [1], the IC50 is at most 10 µM. For the same compound, in assay [2], the pIC50 was at least 5.82.
`CCNCc1cc(-c2cc(C(N)=O)c3[nH]cc(C4CCN(S(=O)(=O)CC)CC4)c3c2)cs1` [Example 233, 5-{5-[(ethylamino)methyl]-3-thienyl}-3-[1-(ethylsulfonyl)-4-piperidinyl]-1H-indole-7-carboxamide trifluoroacetate]: the IC50 in assay [1] was at most 10 µM. For the same compound, the pIC50 in assay [2] is at least 5.82.
`CCS(=O)(=O)N1CCC(c2c[nH]c3c(C(N)=O)cc(-c4csc(CN[C@H](C)CO)c4)cc23)CC1` [Example 234, 3-[1-(ethylsulfonyl)-4-piperidinyl]-5-[5-({[(1R)-2-hydroxy-1-methylethyl]amino}methyl)-3-thienyl]-1H-indole-7-carboxamide trifluoroacetate (salt)]: the IC50 in assay [1] is at most 10 µM. The compound also gave a pIC50 in assay [2] of at least 5.82.
The like results for `CCS(=O)(=O)N1CCC(c2c[nH]c3c(C(N)=O)cc(-c4csc(CN5CCCCC5)c4)cc23)CC1` [Example 235, 3-[1-(ethylsulfonyl)-4-piperidinyl]-5-[5-(1-piperidinylmethyl)-3-thienyl]-1H-indole-7-carboxamide trifluoroacetate] were, in that order, at most 10 µM and at least 5.82.
For `CCS(=O)(=O)N1CCC(c2c[nH]c3c(C(N)=O)cc(-c4csc(CN5CCOCC5)c4)cc23)CC1` [Example 236, 3-[1-(ethylsulfonyl)-4-piperidinyl]-5-[5-(4-morpholinylmethyl)-3-thienyl]-1H-indole-7-carboxamide trifluoroacetate], the IC50 in assay [1] was at most 10 µM. In assay [2], this compound showed a pIC50 of at least 5.82.
For `CCS(=O)(=O)N1CCC(c2c[nH]c3c(C(N)=O)cc(-c4coc(CNC)c4)cc23)CC1` [Example 237, 3-[1-(ethylsulfonyl)-4-piperidinyl]-5-{5-[(methylamino)methyl]-3-furanyl}-1H-indole-7-carboxamide trifluoroacetate] the same measures were at most 10 µM and at least 5.82.
For `CCS(=O)(=O)N1CCC(c2c[nH]c3c(C(N)=O)cc(-c4csc(C(C)N5CCCC5)c4)cc23)CC1` (centres unmarked) [Example 238, 3-[1-(ethylsulfonyl)-4-piperidinyl]-5-{5-[1-(1-pyrrolidinyl)ethyl]-3-thienyl}-1H-indole-7-carboxamide trifluoroacetate] the same measures were at most 10 µM and at least 5.82.
